Source: PubChem BioAssay (NCI)
“And” between values parts separate entries of the source, which are not always exact repeats. Equal entries are not always repeated.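 Protocol summary: plate cells (96-well), add compound at 5 concentrations, incubate 48 h, interpolate endpoints linearly. Here, GI50 denotes the concentration required for 50% inhibition of growth. TGI marks complete inhibition of growth.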

Test system: HOP-62 NSCLC
Test: inhibition of tumour cell growth, NCI panel, 48 h

Compound | TGI | GI50
O=C(O)CCC(NC(=O)c1ccc(Nc2nc3ccccc3nc2-c2cccs2)cc1)C(=O)O (stereo unspecified) | > 100 µM | –
NC1=NCCC1(c1ccccc1)c1ccccn1 (stereo unspecified) | > 100 µM | –
CNC(=S)OCCC(C)CCCC(C)C (stereo unspecified) | 34.1 µM | –
COC1/C=C/OC2(C)Oc3c(C)c(O)c4c(O)c(c(/C=N/Nc5ccc([N+](=O)[O-])cc5[N+](=O)[O-])c(O)c4c3C2=O)NC(=O)C(C)=C/C=C/C(C)C(O)C(C)C(O)C(C)C(OC(C)=O)C1C (stereo unspecified) | 25.5 µM | 2.47 µM
COC(=O)/C(C#N)=C1\NC(=O)c2ccccc21 | > 100 µM | –

Test system: SK-MEL-2 melanoma
Test: inhibition of tumour cell growth, NCI panel, 48 h

Compound | GI50 | TGI
Nc1nc(-n2c(-c3ccccc3)nc3c(Br)cc(Br)cc3c2=O)nnc1-c1cccc(Cl)c1Cl | 83.8 µM | > 100 µM
Cc1c(C(=O)C/C(=N/NC(=O)c2ccccc2O)C(=O)Nc2ccccc2C(C)C)[n+](=O)c2ccccc2n1[O-] | – | 8.81 µM
CCCCCCCCCCCC(=O)OCCOCCOCCOCCOCCOCc1ccccc1 | – | > 100 µM
CCCC1C(=O)CCc2c(OC)ccc(OC)c21 (stereo unspecified) | – | > 100 µM
O=C(CCc1nc(=S)[nH][nH]1)Nc1cc(Cl)c(Cl)cc1Cl | – | > 100 µM
COc1ccc(CC2c3cc4c(cc3CCN2C)OCO4)c(C=O)c1OC (stereo unspecified) | – | > 100 µM
O=C(Nc1nc2ccc([N+](=O)[O-])cc2s1)C(=O)C(C1OC(=O)c2ccccc21)[N+](=O)[O-] (stereo unspecified) | – | > 100 µM
COc1cc2c(cc1OCCCCN1CCN(CC(=O)Nc3ccc(Cl)cc3C(=O)c3ccccc3Cl)CC1)N=CC1CCCN1C2=O (stereo unspecified) | 0.288 µM | 0.869 µM
O=C(CCc1nc(=S)[nH][nH]1)Nc1ccc(Cl)c(Cl)c1 | – | 31.2 µM
COC(=O)C1(C(C)C)CCc2c(OC)ccc(OC)c2C1=O (stereo unspecified) | – | > 100 µM
COC(=O)c1ccccc1NC(=O)C(=O)Cc1nc2c3c(ccc2[nH]c1=O)C(=O)c1ccccc1C3=O | – | > 100 µM
Cc1ccc(S(=O)(=O)OC[C@@H]2CO2)cc1 | – | > 100 µM
COc1cc2cc(OC)c3cc4c(cc3c2c(OC)c1OC)OCO4 | – | > 100 µM
OCc1cc2ccccc2c2c3c(ccc12)OCO3 | 32.2 µM | 84.9 µM
CCCCCCCCCCCCCC(=O)OC(/C=C/C(C)C)C(O)C(O)C(OC)C(=O)NC1CCCCN(C)C1=O (stereo unspecified) | > 49 µM | 9.12 µM and > 49 µM
CC1(C(=O)O)CCC[C@@]2(C)C1CC[C@@]1(C)c3cocc3CCC21 (stereo partly specified) | – | > 100 µM
CCn1c(C)nn2c(=O)c3ccccc3nc2c1=O | – | > 100 µM
COc1cnc2c(c1)C(=O)c1c-2n(CCCN2CCOCC2)c(=O)c2cc(F)ccc12 | 1.67 µM | 5.18 µM
CCOC(=O)CCC1(C(=O)OCC)CCCCC1=O (stereo unspecified) | – | > 100 µM

Compound | GI50 | TGI
CCOC1Oc2ccccc2C(=O)/C1=C/Nc1ccc(C(C)=O)cc1 (stereo unspecified) | 40.1 µM | > 100 µM
CCN(CC)CCSc1c2ccccc2nc2cc(NCC(=O)Nc3ccccc3-c3ccccc3NC(=O)CNc3ccc4c(SCCN(CC)CC)c5ccccc5nc4c3)ccc12 | – | > 100 µM
Cc1nc2c(ccc3ncccc32)[nH]1 | – | > 100 µM
CCN1CCN(Cc2ccc(NC(=O)c3cccc(C#Cc4cccc5[nH]nc(N)c45)c3)cc2C(F)(F)F)CC1 | 0.352 µM | 1.34 µM
Cc1cc(N(CCC#N)CCC#N)ccc1N=Nc1ccc(S(N)(=O)=O)cc1 | – | > 100 µM
CC(=O)[CH-]C(=O)c1ccccc1.CC(=O)[CH-]C(=O)c1ccccc1.CN(C)c1ccc([O-])cc1.CN(C)c1ccc([O-])cc1.Cl.[Ti+4] | > 31.6 µM | > 31.6 µM
CC1(C)C(=O)/C=C\C(=O)C(C)(C)C2=CC=C(O2)C(C)(C)C(=O)/C=C\C(=O)C(C)(C)C2=CC=C1O2 | – | > 100 µM
NC(=O)NO.O.O.O.O.O.O.O.O.O.O.O.[Ge].[Ge].[Ge].[Ge].[Ge].[O]=[Ge].[O]=[Ge].[O]=[Ge].[O]=[Ge].[O]=[Ge][OH] | – | > 100 µM
CN(C)C(=S)N=C(Nc1ccccc1)Nc1ccccc1 | – | > 100 µM
COC(=O)CC[N+]1=CCC(c2ccccc2)(c2ccccc2)O1 | – | > 100 µM
CCN(CC)N=Nc1c(C(N)=O)n[nH]c1C | – | > 100 µM
OCCN(CCO)c1ncnc2c1ncn2Cc1ccc(CCl)cc1 | 16.5 µM | 41.1 µM
Nc1ccccc1S(=O)(=O)N(CC(=O)O)c1ccccc1 | – | > 100 µM
CCOC(=O)C(C)(C)Oc1ccc2c(-c3ccccc3)cc(=O)oc2c1 | – | 48.7 µM
CNS(=O)(=O)NNS(=O)(=O)c1ccccc1 | – | > 100 µM
Cc1cc(NS(=O)(=O)c2ccc(Nc3c4ccccc4nc4c(C(=O)N5CCN(CCOS(C)(=O)=O)CC5)cccc34)cc2)no1 | – | > 100 µM
O=C(O)CCC(NC(=O)c1ccc(Nc2nc3ccccc3nc2-c2cccs2)cc1)C(=O)O (stereo unspecified) | – | > 100 µM
NC1=NCCC1(c1ccccc1)c1ccccn1 (stereo unspecified) | – | > 100 µM
CNC(=S)OCCC(C)CCCC(C)C (stereo unspecified) | – | 26.7 µM

Test system: OVCAR-4 ovarian
Test: inhibition of tumour cell growth, NCI panel, 48 h

Compound | GI50 | TGI
Nc1nc(-n2c(-c3ccccc3)nc3c(Br)cc(Br)cc3c2=O)nnc1-c1cccc(Cl)c1Cl | 51.7 µM | > 100 µM
Cc1c(C(=O)C/C(=N/NC(=O)c2ccccc2O)C(=O)Nc2ccccc2C(C)C)[n+](=O)c2ccccc2n1[O-] | – | > 100 µM
CCCCCCCCCCCC(=O)OCCOCCOCCOCCOCCOCc1ccccc1 | – | > 100 µM
CCCC1C(=O)CCc2c(OC)ccc(OC)c21 (stereo unspecified) | – | > 100 µM
O=C(CCc1nc(=S)[nH][nH]1)Nc1cc(Cl)c(Cl)cc1Cl | – | > 100 µM
COc1ccc(CC2c3cc4c(cc3CCN2C)OCO4)c(C=O)c1OC (stereo unspecified) | – | > 100 µM
O=C(Nc1nc2ccc([N+](=O)[O-])cc2s1)C(=O)C(C1OC(=O)c2ccccc21)[N+](=O)[O-] (stereo unspecified) | – | > 100 µM
COc1cc2c(cc1OCCCCN1CCN(CC(=O)Nc3ccc(Cl)cc3C(=O)c3ccccc3Cl)CC1)N=CC1CCCN1C2=O (stereo unspecified) | 0.262 µM | 0.962 µM
O=C(CCc1nc(=S)[nH][nH]1)Nc1ccc(Cl)c(Cl)c1 | – | > 100 µM
COC(=O)C1(C(C)C)CCc2c(OC)ccc(OC)c2C1=O (stereo unspecified) | – | > 100 µM
COC(=O)c1ccccc1NC(=O)C(=O)Cc1nc2c3c(ccc2[nH]c1=O)C(=O)c1ccccc1C3=O | – | 98 µM
Cc1ccc(S(=O)(=O)OC[C@@H]2CO2)cc1 | – | > 100 µM
COc1cc2cc(OC)c3cc4c(cc3c2c(OC)c1OC)OCO4 | – | > 100 µM
O=C(CC(=O)c1cccc2ccccc12)C(=O)Nc1ccc(Cl)cc1 | – | > 100 µM
OCc1cc2ccccc2c2c3c(ccc12)OCO3 | 30.6 µM | 603 µM
CCCCCCCCCCCCCC(=O)OC(/C=C/C(C)C)C(O)C(O)C(OC)C(=O)NC1CCCCN(C)C1=O (stereo unspecified) | – | 7.57 µM and > 49 µM
CC1(C(=O)O)CCC[C@@]2(C)C1CC[C@@]1(C)c3cocc3CCC21 (stereo partly specified) | – | > 100 µM
CCn1c(C)nn2c(=O)c3ccccc3nc2c1=O | – | > 100 µM
COc1cnc2c(c1)C(=O)c1c-2n(CCCN2CCOCC2)c(=O)c2cc(F)ccc12 | 0.352 µM | > 100 µM
CCOC1Oc2ccccc2C(=O)/C1=C/Nc1ccc(C(C)=O)cc1 (stereo unspecified) | 49 µM | > 100 µM

Compound | GI50 | TGI
CCN(CC)CCSc1c2ccccc2nc2cc(NCC(=O)Nc3ccccc3-c3ccccc3NC(=O)CNc3ccc4c(SCCN(CC)CC)c5ccccc5nc4c3)ccc12 | – | > 100 µM
Cc1nc2c(ccc3ncccc32)[nH]1 | – | > 100 µM
CCN1CCN(Cc2ccc(NC(=O)c3cccc(C#Cc4cccc5[nH]nc(N)c45)c3)cc2C(F)(F)F)CC1 | 0.198 µM | 1.61 µM
Cc1cc(N(CCC#N)CCC#N)ccc1N=Nc1ccc(S(N)(=O)=O)cc1 | – | > 100 µM
CC1(C)C(=O)/C=C\C(=O)C(C)(C)C2=CC=C(O2)C(C)(C)C(=O)/C=C\C(=O)C(C)(C)C2=CC=C1O2 | – | > 100 µM
NC(=O)NO.O.O.O.O.O.O.O.O.O.O.O.[Ge].[Ge].[Ge].[Ge].[Ge].[O]=[Ge].[O]=[Ge].[O]=[Ge].[O]=[Ge].[O]=[Ge][OH] | – | > 100 µM
CN(C)C(=S)N=C(Nc1ccccc1)Nc1ccccc1 | – | > 100 µM
COC(=O)CC[N+]1=CCC(c2ccccc2)(c2ccccc2)O1 | – | > 100 µM
CCN(CC)N=Nc1c(C(N)=O)n[nH]c1C | – | > 100 µM
CCC[CH2][Sn]([CH2]CCC)([S]c1cccc2cccnc12)[S]c1cccc2cccnc12 | 0.135 µM | 0.307 µM
OCCN(CCO)c1ncnc2c1ncn2Cc1ccc(CCl)cc1 | 18.8 µM | 35.4 µM
Nc1ccccc1S(=O)(=O)N(CC(=O)O)c1ccccc1 | – | > 100 µM
CCOC(=O)C(C)(C)Oc1ccc2c(-c3ccccc3)cc(=O)oc2c1 | – | > 100 µM
Cc1cc(NS(=O)(=O)c2ccc(Nc3c4ccccc4nc4c(C(=O)N5CCN(CCOS(C)(=O)=O)CC5)cccc34)cc2)no1 | – | > 100 µM
O=C(O)CCC(NC(=O)c1ccc(Nc2nc3ccccc3nc2-c2cccs2)cc1)C(=O)O (stereo unspecified) | – | > 100 µM
NC1=NCCC1(c1ccccc1)c1ccccn1 (stereo unspecified) | – | > 100 µM
CNC(=S)OCCC(C)CCCC(C)C (stereo unspecified) | – | 30.9 µM
COC1/C=C/OC2(C)Oc3c(C)c(O)c4c(O)c(c(/C=N/Nc5ccc([N+](=O)[O-])cc5[N+](=O)[O-])c(O)c4c3C2=O)NC(=O)C(C)=C/C=C/C(C)C(O)C(C)C(O)C(C)C(OC(C)=O)C1C (stereo unspecified) | 2.9 µM | > 50 µM
COC(=O)/C(C#N)=C1\NC(=O)c2ccccc21 | – | > 100 µM
